Test results reported in article PMC8864858, “Synthesis, in vitro biological evaluation and molecular modelling of new 2-chloro-3-hydrazinopyrazine derivatives as potent acetylcholinesterase inhibitors on PC12 cells” (BMC Chemistry, 2022).
pIC50: −log10 of the molar value. Entries after “also recorded” stand apart in the source; their conditions may differ.

Key:
[1] = biological target: T1, AChE from Electrophorus electricus (Electrophorus electricus, UniProt O42275); assay: biochemical; conditions: Ellman method, compounds 0.1–10 µM, triplicate; read-out: IC50 against AChE activity
T1 construct: purchased Sigma
T1 sequence (O42275 24-633): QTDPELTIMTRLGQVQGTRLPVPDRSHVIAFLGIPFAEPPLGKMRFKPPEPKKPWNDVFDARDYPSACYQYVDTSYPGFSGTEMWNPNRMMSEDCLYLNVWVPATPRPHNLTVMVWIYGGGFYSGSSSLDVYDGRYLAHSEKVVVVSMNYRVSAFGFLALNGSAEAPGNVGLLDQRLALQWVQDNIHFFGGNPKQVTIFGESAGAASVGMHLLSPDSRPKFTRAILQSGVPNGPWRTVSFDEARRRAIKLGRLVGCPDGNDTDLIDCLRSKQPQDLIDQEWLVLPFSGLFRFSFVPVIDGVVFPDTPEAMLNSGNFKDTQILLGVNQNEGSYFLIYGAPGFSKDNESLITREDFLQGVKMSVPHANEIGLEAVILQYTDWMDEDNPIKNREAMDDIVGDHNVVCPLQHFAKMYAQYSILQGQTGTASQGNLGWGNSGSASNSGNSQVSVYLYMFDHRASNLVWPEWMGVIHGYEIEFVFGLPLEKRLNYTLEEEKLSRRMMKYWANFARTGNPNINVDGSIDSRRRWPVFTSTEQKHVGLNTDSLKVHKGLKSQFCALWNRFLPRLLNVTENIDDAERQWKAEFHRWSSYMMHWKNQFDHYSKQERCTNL
Protocol: The AChE inhibitory activity of all synthesized novel derivatives and their controls was evaluated through using the Ellman method. […] Each concentration was assayed in triplicate. […] Finally, absorbance was recorded by using a Pharmacia Biotech Ultrospec 3000 UV–Vis spectrophotometer at 410 nm.

[2] = DPPH radical scavenging assay; format: physicochemical; conditions: for Scavenging activity on DPPH radical (in words): Fig. 3B
Protocol: (§1) The radical scavenging activity of prepared compounds was assessed through using ABTS decolorization assay and method reported by Re et al. with few modifications. In this regard, ABTS solution was diluted with 80% ethanol to the absorbance of 0.70 ± 0.05 at 734 nm. After adding 100 µL of the obtained compounds in ethanol (1–30 µM) or ascorbic acid, absorbance was measured at exactly 20 min in the same wavelength. DPPH assay was based on the method provided by Ghafouri et al. with some modifications. Additionally, the quenching of free radicals by novel synthesized compounds was evaluated spectrophotometrically (UV–Vis Pharmacia Biotech Ultrospec 3000) at 517 nm against the absorbance of DPPH radical. Further, ferric reducing/antioxidant power (FRAP) assay was performed according to the previous study with some modifications, the principle of which was based on reducing a ferric 2,4,6-tris(2-pyridyl)-1,3,5-triazine (Fe^3+-TPTZ) to ferrous in the presence of prepared compounds. Finally, a standard curve was drawn by considering the different concentrations (10–1000 µM) of ferrous sulfate.

[3] = Ferric reducing/antioxidant power (FRAP) assay; format: physicochemical; conditions: for Antioxidant effect in FRAP (in words): Fig. 3C
Protocol: as §1

[4] = ABTS radical decolorization assay; format: physicochemical; conditions: final concentration 1–30 μM, absorbance at 734 nm
Protocol: as §1

PC12 cells [5] = assay: Cell viability of PC12 cells treated with CHP4 (MTT); format: cell-based; conditions: concentrations of 0–100 μM; 24 and 48 h
Protocol: Rattus norvegicus pheochromocytoma PC12 cells (Pastor Institute, Iran) were cultured in the Dulbecco's Modified Eagle's Medium (DMEM) containing 10% fetal bovine serum (FBS) and 1% penicillin/streptomycin (Gibco) at 37 °C with 5% CO2. In order to examine the role of CHP4, PC12 cells were treated with the different concentrations (10–100 µM) of CHP4 for 24 and 48 h. […] Furthermore, […] 10 µL of 0.5 mg/mL MTT stock solution were added to each well containing about 1 mL of medium and the mixture was incubated for 4 h. Then, the plates were agitated on a plate shaker for 30 min and optical density was read at 570 nm by using an ELISA reader (Biotech).

PC12 cells [6] = assay: Ab1-42-induced cytotoxicity in PC12 cells, neuroprotection (MTT); format: cell-based; conditions: 100 µM Ab1-42, 24 h
Protocol: Rattus norvegicus pheochromocytoma PC12 cells (Pastor Institute, Iran) were cultured in the Dulbecco's Modified Eagle's Medium (DMEM) containing 10% fetal bovine serum (FBS) and 1% penicillin/streptomycin (Gibco) at 37 °C with 5% CO2. […] Furthermore, 50 µL of DMSO and 10 µL of 0.5 mg/mL MTT stock solution were added to each well containing about 1 mL of medium and the mixture was incubated for 4 h. Then, the plates were agitated on a plate shaker for 30 min and optical density was read at 570 nm by using an ELISA reader (Biotech).

Tau-p = assay: Western blot analysis of Tau-p in PC12 cells; format: cell-based, Rattus norvegicus; conditions: PC12 cells in presence of Ab1-42; CHP4 at 20 and 30 µM, 24 h
Protocol: (§2) To this end, the cells were seeded in the 6-well plate and treated with 20 and 30 µM CHP4 for 24 h. Additionally, they were washed with cold PBS, followed by lysing with lysis buffer (20 mM Tris (pH 7.5), 150 mM NaCl, 1 mM EDTA, 1% NP-40, 0.5% sodium deoxycholate, 0.1% SDS, 50 mM Tris, protease and phosphatase inhibitor cocktails) for 30 min on ice. After centrifuging lysates at 4 °C in 12,000g for 10 min, the supernatants were transferred to new tubes. Protein concentration was detected through using the Bradford assay. Further, the denatured proteins was resolved on SDS-PAGE, transferred onto PVDF membranes (Millipore, Billerica, MA, USA), and blocked with 5% nonfat dry milk in the PBS containing 0.1% Tween-20 (PBST). Then, the membranes were incubated with the rabbit primary antibodies against Tau-p, HSP70, and β-actin (as a control group) overnight at 4 °C, and exposed with the horseradish peroxidase (HRP)-conjugated second antibody for 2 h at room temperature. Finally, the density of relative protein bands was determined through densitometric scanning the blots by using Image-J program.

HSP70 = assay: Western blot analysis of HSP70 in PC12 cells; format: cell-based, Rattus norvegicus; conditions: PC12 cells in presence of Ab1-42; CHP4 30 μM (b1)
Protocol: as §2

| SMILES | pIC50 [1] | Scavenging activity on DPPH radical (in words) [2] | Antioxidant effect in FRAP (in words) [3] | further results |
| --- | --- | --- | --- | --- |
| Clc1ccc(/C=N/Nc2nccnc2Cl)cc1 [CHP5, (E)-2-chloro-3-(2-(4-chlorobenzylidene)hydrazineyl)pyrazine] | 5.38 | low | least |  |
| COc1ccc(/C=N/Nc2nccnc2Cl)cc1 [CHP1, (E)-2-chloro-3-(2-(4-methoxybenzylidene) hydrazinyl) pyrazine] |  | moderate |  | ABTS radical scavenging activity (inhibition) [4]: 48% |
| Cc1ccc2occ(/C=N/Nc3nccnc3Cl)c(=O)c2c1 [CHP2, (E)-3-((2-(3-chloropyrazin-2-yl)hydrazineylidene)methyl)-6-methyl-4H-chromen-4-one] |  | highest scavenging activity |  | pIC50 ([2]; 517 nm): 4.59 |
| Oc1cccc(/C=N/Nc2nccnc2Cl)c1 [CHP3, (E)-3-((2-(3-chloropyrazin-2-yl)hydrazineylidene)methyl)phenol] |  | highest scavenging activity |  |  |
| Oc1ccccc1/C=N/Nc1nccnc1Cl [CHP4, (E)-2-((2-(3-chloropyrazin-2-yl)hydrazineylidene)methyl)phenol] | 5.42 | highest scavenging activity | highest | Ability for Fe3+ reduction (FRAP) ([3]; printed as 3.016 per 1 mM, concentration of Fe2+): 3.016; Toxicity in PC12 cells (PC12 cells [5]): non-toxic; Effect on Ab1-42-induced cell death (PC12 cells [6]): significantly reduced the Ab1-42-induced cell death in a dose-dependent manner; Tau-p expression (western blot) (Tau-p): clearly decreased; HSP70 expression (western blot) (HSP70): significantly increased; also recorded: increased HSP70 expression |
